Type in all cases: biochemical
For assay [1], the target named is T1, c-fms (Homo sapiens, UniProt P07333).
T1 construct: The c-fms intracellular domain was expressed from a baculovirus expression system; GST (N); made in house
T1 sequence (P07333 539-972 limits assumed): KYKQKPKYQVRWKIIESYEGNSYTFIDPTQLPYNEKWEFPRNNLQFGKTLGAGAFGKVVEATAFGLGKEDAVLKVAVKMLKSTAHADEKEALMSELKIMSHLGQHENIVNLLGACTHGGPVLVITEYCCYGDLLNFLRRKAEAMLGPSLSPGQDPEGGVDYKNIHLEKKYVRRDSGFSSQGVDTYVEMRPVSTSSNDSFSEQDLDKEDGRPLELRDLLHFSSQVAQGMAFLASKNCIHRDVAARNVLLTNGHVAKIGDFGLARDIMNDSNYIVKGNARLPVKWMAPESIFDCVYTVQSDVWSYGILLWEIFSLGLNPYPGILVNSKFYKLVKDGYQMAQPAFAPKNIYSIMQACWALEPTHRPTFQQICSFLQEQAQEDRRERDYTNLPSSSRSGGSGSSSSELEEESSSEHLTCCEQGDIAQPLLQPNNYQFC
The assay is described as follows: c-fms protein kinase assay. Particulars: kinase inhibition, Table 3. The method, then: c-fms protein kinase assays utilized the peptide substrate, biotin-[…]-NH2 as the phosphoryl group acceptor. The c-fms intracellular domain was expressed from a baculovirus expression system, as an amino-terminal GST fusion protein, and purified to homogeneity using Glutathione agarose from Sigma Chemical Co. Maximum activation of the enzyme was achieved by preactivation at room temperature for 120 min in the presence of 100 μM ATP and 15 mM MgCl2, This enzyme stock was diluted to 150 nM prior to using in the assay. Typically assays were performed in white, opaque, 96-well plates in a 45 ul assay volume including 15 ul 6% DMSO, with or without compounds, 15 ul of the preactivated, diluted enzyme, and 15 ul of a substrate mixture. Reactions contained 50 mM HEPES, pH 7.5, 1.7 μM ATP, 15 mM MgCl2, 3 μM peptide, 2.5 mM DTT, 50 mM NaCl and 0.15 uCi/assay [□□^32P]ATP. The controls were reactions in the presence (negative controls) or absence (positive controls) of 50 mM EDTA. Reactions were allowed to proceed for 90 min at room temperature. The reaction products were quantified using Scintillation Proximity technolgy. The reactions were quenched by the addition of 200 ul of a solution containing 0.3 mg streptavidin SPA beads from Amersham, 50 mM EDTA, 0.1% TX-100, 50 uM ATP, in PBS, pH7.2 (phosphate buffered solution). Plates were sealed and counted in a Packard Topcount scintillation counter. IC50 values were obtained by fitting raw data to the equation y=Vmax*(1−(x/(k+x))).

Assay [2] addresses CDK2 (Homo sapiens, UniProt P24941). As to the kind of experiment: CDK2 substrate phosphorylation assay. The settings on record: kinase inhibition, Table 3. The method, then:
Cyclin dependent protein kinase assays utilized the peptides Biotin-aminohexyl-[…] and Biotin-aminohexyl-[…]-NH2 as phosphoryl group acceptors. CDK2 was expressed utilizing a baculovirus expression system and was partially purified to comprise 20-80% of total protein, with no detectable competing reactions present. Typically, assays were performed by incubating enzyme (0.2-10 nM), with and without inhibitor, one of the two peptide substrates ([…]), [γ-^32P]ATP ([…]), and 10-20 mM Mg^2+ for periods of time generally within the range 10-120 min. Reactions were terminated with 0.2-2 volumes of either 20% acetic acid or 50-100 mM EDTA buffered to pH 7 (substrate consumption <20%). The buffer employed in enzyme assays was either 30 mM HEPES 7.4 containing 0.15 M NaCl and 5% DMSO, the buffer 50 mM MOPS 7.0 containing 0.15 M NaCl and 5% DMSO, or the buffer 100 mM HEPES pH 7.5 containing 0.1 mg/mL BSA and 5% DMSO. Inhibitors were diluted in 100% DMSO prior to addition into the assay. Detection of peptide phosphorylation was accomplished by scintillation counting following either collection of peptide onto phosphocellulose filters (for reactions stopped with acetic acid), collection of peptide in wells of 96 well plates coated with Streptavidin (Pierce) (reactions were stopped with EDTA), or addition of Avidin coated Scintillant impregnated beads (Scintillation Proximity Assays from Amersham; reactions were stopped with EDTA).

The target of assay [3] is T2, VEGFR-2 (Homo sapiens, UniProt P35968).
T2 construct: The kinase domain of the enzyme was purified to homogeneity from a baculovirus expression system; made in house
T2 sequence (P35968 834-1162 limits assumed, species assumed): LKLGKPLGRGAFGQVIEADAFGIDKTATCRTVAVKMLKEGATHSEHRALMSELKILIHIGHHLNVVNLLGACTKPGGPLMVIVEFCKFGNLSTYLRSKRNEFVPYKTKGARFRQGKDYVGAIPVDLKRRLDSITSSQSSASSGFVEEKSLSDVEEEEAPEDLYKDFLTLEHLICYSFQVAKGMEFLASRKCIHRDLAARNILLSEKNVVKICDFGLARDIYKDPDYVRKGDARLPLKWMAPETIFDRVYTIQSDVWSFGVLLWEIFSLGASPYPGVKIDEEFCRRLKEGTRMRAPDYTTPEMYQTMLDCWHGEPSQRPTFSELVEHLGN
As to the kind of experiment: VEGFR-2 kinase assay. Particulars: kinase inhibition, Table 3; read-out: VEGFR2 (IC50). The method, then: The peptide substrate used in the VEGFR-2 assay was biotin-aminohexyl-[…]-NH2. The kinase domain of the enzyme was purified to homogeneity from a baculovirus expression system. The enzyme was preactivated on ice for 15 min in the presence of 100 μM ATP and 20 mM MgCl2, and stored at −80° C. until needed for assay. The activated enzyme was diluted to 0.4 nM into a 60 μl reaction containing 100 mM HEPES, pH 7.5, 5 μM ATP, 10 mM MgCl2, 5 μM peptide, 0.1 mM DTT, 0.05 mg/ml BSA, and an inhibitor at varying concentrations. The controls were reactions in the presence (negative controls) or absence (positive controls) of 50 mM EDTA. Reactions were incubated for 30 min at room temperature, and then quenched by the addition of EDTA to 60 mM in 210 μl. The quenched samples (190 μl) were transferred to a neutravidin-coated plate (Pierce) and incubated at room temperature for 40 min to allow biotinylated peptide to bind to the neutravidin. The unbound components of the reaction were removed by washing with a plate washer, then 200 μl HRP-PY20 anti-phosphotyrosine antibody conjugate was added to each well. After incubation for 40 min, the plate was washed to remove any unbound anitbody. A HRP substrate, K-blue (Neogen) was added and the reaction was quenched with Red Stop (Neogen) after 20 min. The absorbance of the wells was read at A650 in a plate reader. IC50 values were obtained by fitting raw data to A650=VMAX*(1−[I]/IC50+[I])))+b, where b is background.

What is called IC50 is the concentration needed to halve the response being measured.

Molecules are shown by their SMILES.

`O=C1Nc2ncc(Br)cc2C1=CNc1ccc2ncccc2c1` [Example 19, 5-Bromo-3-[(6-quinolinylamino)methylidene]-1,3-dihydro-2H-pyrrolo[2,3-b]pyridin-2-one]: the half-maximal inhibitory concentration (IC50) in assay [1] fell in the range of 1000 to 10000 nM; in assay [2], 10 to 100 nM; in assay [3], 100 to 1000 nM.
Regarding `O=C1Nc2nc(Cl)ccc2C1=CNc1ccc2cn[nH]c2c1` [Example 21, 6-Chloro-3-[(1H-indazol-6-ylamino)methylidene]-1,3-dihydro-2H-pyrrolo[2,3-b]pyridin-2-one], the IC50 in assay [1] was in the range of 1000 to 10000 nM; in assay [2], 100 to 1000 nM; in assay [3] it was 100 to 1000 nM.
Consider `CCOC(=O)c1cnc2c(c1)C(=CNc1ccc(S(N)(=O)=O)cc1)C(=O)N2` [Example 23, Ethyl 3-{[4-(aminosulfonyl)anilino]methylidene}-2-oxo-1,2-dihydro-3H-pyrrolo[2,3-b]pyridine-5-carboxylate], for which the IC50 in assay [1] was in the range of 1000 to 10000 nM; in assay [2], 10 to 100 nM; in assay [3] it was 100 to 1000 nM.
For `CCOC(=O)c1cnc2c(c1)C(=CNc1ccc3cn[nH]c3c1)C(=O)N2` [Example 24, Ethyl 3-[(1H-indazol-6-ylamino)methylidene]-2-oxo-1,2-dihydro-3H-pyrrolo[2,3-b]pyridine-5-carboxylate], the concentration for half-maximal inhibition (IC50) in assay [1] was in the range of 1000 to 10000 nM; in assay [2], 10 to 100 nM; in assay [3], 10 to 100 nM.

These data come from US6815439B2, “Substituted aza-oxindole derivatives” (SmithKline Beecham Corporation, priority 1999, dated 2004).
